In patent US9725465B2, “Biaryl acetamide compounds and methods of use thereof” (Ambit Biosciences Corporation, priority 2013, dated 2017):
pIC50, pKd: −log10 of the molar value.

What was measured:
FLT3-ITD = FLT3-ITD (Homo sapiens (Human), UniProt P36888, INS600HVDFREYEYD); assay: pFLT3 MSD assay, Ba/F3 FLT3-ITD; format: cell-based; settings: Ba/F3 FLT3-ITD cells, 2 hours, read-out: BaF3-FLT3-ITD pFlt3 IC50
FLT3 kinase = FLT3 kinase (Homo sapiens (Human), UniProt P36888); assay: Competition binding assay (Kd), FLT3; settings: competition binding assay
FLT3 kinase, sequence (P36888 27-993): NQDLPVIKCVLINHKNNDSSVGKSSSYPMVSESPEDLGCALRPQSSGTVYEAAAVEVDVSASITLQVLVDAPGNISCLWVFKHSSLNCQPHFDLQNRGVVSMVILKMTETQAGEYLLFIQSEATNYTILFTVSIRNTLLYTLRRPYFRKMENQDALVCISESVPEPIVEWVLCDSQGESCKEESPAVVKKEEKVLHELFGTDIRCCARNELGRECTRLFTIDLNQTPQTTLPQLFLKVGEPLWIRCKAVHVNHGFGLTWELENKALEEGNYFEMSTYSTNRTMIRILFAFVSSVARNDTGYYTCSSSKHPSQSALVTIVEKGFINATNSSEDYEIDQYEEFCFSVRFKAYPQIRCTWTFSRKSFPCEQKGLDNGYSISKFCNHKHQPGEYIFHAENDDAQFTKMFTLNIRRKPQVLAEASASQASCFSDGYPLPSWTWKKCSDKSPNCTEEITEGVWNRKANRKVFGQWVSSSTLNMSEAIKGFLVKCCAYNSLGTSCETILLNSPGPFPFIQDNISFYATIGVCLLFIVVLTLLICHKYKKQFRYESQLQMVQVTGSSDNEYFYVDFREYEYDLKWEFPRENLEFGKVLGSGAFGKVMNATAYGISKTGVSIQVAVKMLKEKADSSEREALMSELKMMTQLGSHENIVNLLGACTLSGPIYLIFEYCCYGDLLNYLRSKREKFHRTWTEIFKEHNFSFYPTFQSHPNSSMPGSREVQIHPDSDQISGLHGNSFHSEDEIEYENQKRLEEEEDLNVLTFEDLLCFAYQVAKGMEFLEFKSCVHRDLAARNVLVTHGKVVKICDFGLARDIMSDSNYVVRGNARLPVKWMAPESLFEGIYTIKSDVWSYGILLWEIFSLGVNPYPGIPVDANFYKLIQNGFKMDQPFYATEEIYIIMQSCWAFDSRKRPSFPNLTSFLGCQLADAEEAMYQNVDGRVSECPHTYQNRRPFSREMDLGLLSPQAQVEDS

KIT kinase = KIT kinase (Homo sapiens (Human), UniProt P10721); assay: Competition binding assay (Kd), KIT; settings: competition binding assay
KIT kinase, sequence (P10721 26-976): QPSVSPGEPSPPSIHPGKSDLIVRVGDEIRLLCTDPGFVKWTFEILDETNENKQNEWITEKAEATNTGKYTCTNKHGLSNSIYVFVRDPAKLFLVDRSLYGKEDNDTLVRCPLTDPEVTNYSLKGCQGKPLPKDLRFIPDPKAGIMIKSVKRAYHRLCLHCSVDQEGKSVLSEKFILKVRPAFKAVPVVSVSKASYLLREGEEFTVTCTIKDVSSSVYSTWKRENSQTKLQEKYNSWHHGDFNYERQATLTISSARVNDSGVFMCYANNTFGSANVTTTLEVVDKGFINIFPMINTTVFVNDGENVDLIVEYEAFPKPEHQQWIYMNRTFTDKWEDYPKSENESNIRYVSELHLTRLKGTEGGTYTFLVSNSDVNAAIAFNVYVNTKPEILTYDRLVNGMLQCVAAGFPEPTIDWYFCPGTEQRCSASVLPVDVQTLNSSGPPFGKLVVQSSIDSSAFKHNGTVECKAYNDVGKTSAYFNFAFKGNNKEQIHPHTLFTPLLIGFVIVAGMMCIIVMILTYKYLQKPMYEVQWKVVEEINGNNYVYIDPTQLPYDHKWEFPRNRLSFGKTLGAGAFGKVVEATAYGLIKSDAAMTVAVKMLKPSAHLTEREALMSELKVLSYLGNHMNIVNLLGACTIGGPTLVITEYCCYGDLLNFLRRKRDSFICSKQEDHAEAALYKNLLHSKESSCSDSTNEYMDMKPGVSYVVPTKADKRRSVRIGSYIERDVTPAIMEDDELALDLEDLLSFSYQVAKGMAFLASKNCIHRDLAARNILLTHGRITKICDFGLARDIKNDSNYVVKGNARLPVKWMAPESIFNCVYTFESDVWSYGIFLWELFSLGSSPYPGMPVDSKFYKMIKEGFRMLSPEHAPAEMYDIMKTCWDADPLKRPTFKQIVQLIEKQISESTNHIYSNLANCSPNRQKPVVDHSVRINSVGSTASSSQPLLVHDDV
Summary of the method: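 Kd derived from eleven-point threefold serial dilutions of compound competing with bead-bound ligand for kinase; bound kinase eluted and measured by quantitative PCR. Kinase supplied either as a T7 phage fusion or expressed in HEK-293 cells with a DNA tag; DMSO served as control.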

FLT3-ITD, sequence (P36888 other isoform, or with tags, fused parts or gaps limits assumed, stated change not applied): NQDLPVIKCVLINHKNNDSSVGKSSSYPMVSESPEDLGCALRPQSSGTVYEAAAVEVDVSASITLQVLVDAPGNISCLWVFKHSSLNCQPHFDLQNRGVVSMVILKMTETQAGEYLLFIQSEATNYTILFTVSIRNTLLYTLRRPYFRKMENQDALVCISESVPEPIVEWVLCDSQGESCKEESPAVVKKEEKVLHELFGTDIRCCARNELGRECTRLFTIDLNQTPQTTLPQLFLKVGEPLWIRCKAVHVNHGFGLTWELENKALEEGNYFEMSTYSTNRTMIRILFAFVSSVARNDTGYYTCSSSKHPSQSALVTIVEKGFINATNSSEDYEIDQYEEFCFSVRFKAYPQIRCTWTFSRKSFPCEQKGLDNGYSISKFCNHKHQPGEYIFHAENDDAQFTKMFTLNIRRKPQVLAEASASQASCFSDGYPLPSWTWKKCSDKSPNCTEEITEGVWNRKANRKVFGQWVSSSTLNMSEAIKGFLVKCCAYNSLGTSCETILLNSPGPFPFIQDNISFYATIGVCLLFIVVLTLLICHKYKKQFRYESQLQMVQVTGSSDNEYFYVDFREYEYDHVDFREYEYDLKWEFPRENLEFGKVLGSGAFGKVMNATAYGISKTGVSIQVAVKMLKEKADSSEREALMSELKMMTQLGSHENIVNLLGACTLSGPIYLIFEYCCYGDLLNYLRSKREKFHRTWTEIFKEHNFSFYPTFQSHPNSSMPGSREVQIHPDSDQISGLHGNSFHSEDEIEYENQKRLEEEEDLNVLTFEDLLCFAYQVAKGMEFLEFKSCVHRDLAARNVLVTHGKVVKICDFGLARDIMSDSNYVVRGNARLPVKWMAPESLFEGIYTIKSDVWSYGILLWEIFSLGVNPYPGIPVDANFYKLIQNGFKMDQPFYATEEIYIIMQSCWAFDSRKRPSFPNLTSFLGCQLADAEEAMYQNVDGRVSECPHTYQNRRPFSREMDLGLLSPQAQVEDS

Row | pIC50 (FLT3-ITD) | pKd (FLT3 kinase) | pKd (KIT kinase) | SMILES
1 | > 8.00 | > 8.30 | > 8.30 | COc1cc2ncc(-c3ccc(CC(=O)Nc4cc(C5(C(F)(F)F)CC5)on4)c(F)c3)nc2cc1O [Example 157, 2-[2-fluoro-4-(7-hydroxy-6-methoxy-quinoxalin-2-yl)phenyl]-N-[5-[1-(trifluoro-methyl)cyclopropyl]isoxazol-3-yl]acetamide]
2 | > 8.00 | > 8.30 | > 8.30 | COc1cc2ncc(-c3ccc(CC(=O)Nc4cc(C5(C(F)(F)F)CC5)on4)c(F)c3)nc2cc1OCCN(C)C [Example 158, 2-[4-[7-[2-(dimethylamino)ethoxy]-6-methoxy-quinoxalin-2-yl]-2-fluoro-phenyl]-N-[5-[1-(trifluoromethyl)cyclo-propyl]isoxazol-3-yl]acetamide]
3 | > 8.00 | > 8.30 | > 8.30 | COCCOc1cc2ncc(-c3ccc(CC(=O)Nc4cc(C(C)(C)C(F)(F)F)on4)c(F)c3)nc2cc1OC [Example 159, 2-[2-fluoro-4-[7-methoxy-6-(2-methoxy-ethoxy)quinoxalin-2-yl]phenyl]-N-[5-(2,2,2-trifluoro-1,1-dimethyl-ethyl)isoxazol-3-yl]acetamide]
4 | > 8.00 | > 8.30 | > 8.30 | COCCOc1cc2nc(-c3ccc(CC(=O)Nc4cc(C(C)(C)C(F)(F)F)on4)c(F)c3)cnc2cc1OC [Example 160, 2-[2-fluoro-4-[6-methoxy-7-(2-methoxy-ethoxy)quinoxalin-2-yl]phenyl]-N-[5-(2,2,2-trifluoro-1,1-dimethyl-ethyl)isoxazol-3-yl]acetamide]
5 | > 8.00 | > 8.30 | > 8.30 | COCCOc1cc2nc(-c3ccc(CC(=O)Nc4cc(C(C)(C)C)nn4C)c(F)c3)cnc2cc1OC [Example 161, N-(5-tert-butyl-2-methyl-pyrazol-3-yl)-2-[2-fluoro-4-[6-methoxy-7-(2-methoxyethoxy)quinoxalin-2-yl]phenyl]acetamide]
6 | > 8.00 | > 8.30 | > 8.30 | COCCOc1cc2ncc(-c3ccc(CC(=O)Nc4cc(C(C)(C)C)nn4C)c(F)c3)nc2cc1OC [Example 162, N-(5-tert-butyl-2-methyl-pyrazol-3-yl)-2-[2-fluoro-4-[7-methoxy-6-(2-methoxyethoxy)quinoxalin-2-yl]phenyl]acetamide]
7 | > 8.00 | < 7.30 | < 7.30 | COc1cc2nc(-c3ccc(CC(=O)Nc4cc(C5(C(F)(F)F)CC5)on4)c(F)c3)cnc2cc1OCc1ccccc1 [Example 163, 2-[4-(6-benzyloxy-7-methoxy-quinoxalin-2-yl)-2-fluoro-phenyl]-N-[5-[1-(trifluoromethyl)cyclo-propyl]isoxazol-3-yl]acetamide]
8 | > 8.00 | > 8.30 | 7.70 to 8.30 | COc1cc2nc(-c3ccc(CC(=O)Nc4cc(C(C)(C)C(F)(F)F)on4)c(F)c3)cnc2cc1O [Example 164, 2-[2-fluoro-4-(6-hydroxy-7-methoxy-quinoxalin-2-yl)phenyl]-N-[5-(2,2,2-trifluoro-1,1-dimethyl-ethyl)isoxazol-3-yl]acetamide]
9 | > 8.00 | > 8.30 | > 8.30 | COc1cc2nc(-c3ccc(CC(=O)Nc4cc(C(C)(C)C(F)(F)F)on4)c(F)c3)cnc2cc1OCCO [Example 165, 2-[2-fluoro-4-[6-(2-hydroxyethoxy)-7-methoxy-quinoxalin-2-yl]phenyl]-N-[5-(2,2,2-trifluoro-1,1-dimethyl-ethyl)isoxazol-3-yl]acetamide]
10 | > 8.00 | > 8.30 | > 8.30 | COc1cc2nc(-c3ccc(CC(=O)Nc4cc(C5(C(F)(F)F)CC5)on4)c(F)c3)cnc2cc1OCCN=[N+]=[N-] [Example 166, 2-[4-[6-(2-azidoethoxy)-7-methoxy-quinoxalin-2-yl]-2-fluoro-phenyl]-N-[5-[1-(trifluoromethyl)cyclo-propyl]isoxazol-3-yl]acetamide]
11 | > 8.00 | > 8.30 | > 8.30 | COc1cc2nc(-c3ccc(CC(=O)Nc4cc(C5(C(F)(F)F)CC5)on4)c(F)c3)cnc2cc1OCCN [Example 167, 2-[4-[6-(2-aminoethoxy)-7-methoxy-quinoxalin-2-yl]-2-fluoro-phenyl]-N-[5-[1-(trifluoromethyl)cyclo-propyl]isoxazol-3-yl]acetamide]
12 | > 8.00 | > 8.30 | > 8.30 | COc1cc2nc(-c3ccc(CC(=O)Nc4cc(C5(C(F)(F)F)CC5)on4)c(F)c3)cnc2cc1OCCNC(C)=O [Example 168, 2-[4-[6-(2-acetamidoethoxy)-7-methoxy-quinoxalin-2-yl]-2-fluoro-phenyl]-N-[5-[1-(trifluoromethyl)cyclo-propyl]isoxazol-3-yl]acetamide]
13 | > 8.00 | > 8.30 | > 8.30 | COc1cc2nc(C)c(-c3ccc(CC(=O)Nc4cc(C5(C(F)(F)F)CC5)on4)c(F)c3)nc2cc1OC [Example 169, 2-[4-(6,7-dimethoxy-3-methyl-quinoxalin-2-yl)-2-fluoro-phenyl]-N-[5-[1-(trifluoromethyl)cyclo-propyl]isoxazol-3-yl]acetamide]
14 | > 8.00 | > 8.30 | > 8.30 | COc1cc2ncc(-c3ccc(CC(=O)Nc4cc(C(C)(C)C(F)(F)F)on4)c(F)c3)nc2cc1OCCO [Example 170, 2-[2-fluoro-4-[7-(2-hydroxyethoxy)-6-methoxy-quinoxalin-2-yl]phenyl]-N-[5-(2,2,2-trifluoro-1,1-dimethyl-ethyl)isoxazol-3-yl]acetamide]
15 | > 8.00 | > 8.30 | > 8.30 | COCCOc1cc2nc(-c3ccc(CC(=O)Nc4cc(C5(C(F)(F)F)CC5)on4)c(F)c3)cnc2cc1OC [compound 77]
